Data taken from patent publication US5449814A, “Lignan analogues, methods of preparation thereof and anti-hyperlipemic agents” (Shionogi & Co., Ltd., priority 1991, dated 1995).
Read-outs that look alike come from different tables or passages of the source.

What was measured:
[1] = test system: LDL; assay: Inhibitory effect on oxidative modification of LDL (copper-induced, TBA reactive substances); type: biochemical, New Zealand albino rabbits; settings: rabbit LDL 0.2 mg protein/ml, 0.5 μM Cu^2+, 37° C., 24 hours; read-out: Inhibition of LDL oxidation IC50
Description: Inhibitory effect on oxidative modification of LDL
According to the method by Kita et al. (Proc. Natl. Acad. Sci., U.S.A, Vol. 84, 5928 (1987)), the experiment was proceeded as follows.
LDL was isolated from the blood of New Zealand albino rabbits fed with a diet containing 0.5% cholesterol for 3 weeks, and dissolved in phosphate-buffered physiological saline (final LDL concentration: 0.2 mg protein/ml). To this solution, each test compound in ethanol was added and then copper sulfate (final Cu^2+ concentration: 0.5 μM) was added thereto. The mixture was incubated at 37° C. for 24 hours.
After incubation, the content of lipid peroxides in each solution was determined as thiobarbituric acid reactive substances (TBA reactive substances). Concentration for 50% inhibition (IC50) was obtained from a linear regression curve of concentration of a compound versus % inhibition of oxidative modification of LDL. To quantify TBA reactive substances, proteins were removed from the solution after incubation, and the supernatant was examined for the content of TBA reactive substances by TBA method.

[2] = test system: cholesterol in serum; assay: Hypocholesterolemic effect in cholesterol-fed mice; type: in vivo, Male ICR mice; settings: Mus musculus, po, 168 h, diet 1% cholesterol and 0.5% sodium cholate with 0.12% test compound, 7 days
Description: Hypocholesterolemic effect
Male ICR mice weighing 30 to 40 g were allowed to access to a diet containing 1% cholesterol and 0.5% sodium cholate supplemented with 0.12% of a test compound (no test compound in control group) ad libitum for 7 days. Then, the blood was taken and total cholesterol in serum was determined by the method of Allain (Clin. Chem., Vol. 20, 470 (1974)).
Total amount of VLDL cholesterol and LDL cholesterol was obtained by subtracting HLD cholesterol from total cholesterol. HLD cholesterol was quantified by the method of Ash and Hentschel et al. (Clin. Chem., Vol. 24, 2180 (1978)).
Hypocholesterolemic effect of a test compound was evaluated based on % reduction in cholesterol calculated using the equation shown below.

[3] = serum, read-out: Total Chol. reduction (%)
[4] = total minus HDL cholesterol, read-out: (VLDL + LDL) Chol. reduction (%)

Row | SMILES | IC50 [1] | inhibition in vivo at 0.12 % in diet [2, 3] | inhibition in vivo at 0.12 % in diet [2, 4]
1 | CCC(CC)CC(=O)c1c(C(=O)OC)c(-c2ccc3c(c2)OCCO3)c2c(OC)c(OC)c(OC)cc2c1O [Example 60, 1-[3,4-(Ethylenedioxy)phenyl]-3-(3-ethyl-1-oxopentyl)-4-hydroxy-2-methoxycarbonyl-6,7,8-trimethoxynaphthalene] | – | 6% | 33%
2 | COC(=O)c1c(C(=O)c2ccccc2OC)c(O)c2cc(OC)c(OC)c(OC)c2c1-c1ccc(OC)c(OC)c1 [Example 20, 1-(3,4-Dimethoxyphenyl)-4-hydroxy-3-(2-methoxybenzoyl)-2-methoxycarbonyl-6,7,8-trimethoxynaphthalene] | 2500 nM | 14% | 63%
3 | COC(=O)c1c(C(C)=O)c(O)c2cc(OC)c(OC)c(OC)c2c1-c1ccc(OC)c(OC)c1 [Example 2, 3-Acetyl-1-(3,4-dimethoxyphenyl)-4-hydroxy-2-methoxycarbonyl-6,7,8-trimethoxynaphthalene] | 1240 nM | 22% | 59%
4 | COC(=O)c1c(C(=O)CC2CCCCC2)c(O)c2cc(OC)c(OC)c(OC)c2c1-c1ccc(OC)c(OC)c1 [Example 7, 3-(2-Cyclohexyl-1-oxoethyl)-1-(3,4-dimethoxyphenyl)-4-hydroxy-2-methoxycarbonyl-6,7,8-trimethoxynaphthalene] | 2580 nM | 23% | 59%
5 | COC(=O)c1c(C(=O)c2ccc(Cl)cc2)c(O)c2cc(OC)c(OC)c(OC)c2c1-c1ccc(OC)c(OC)c1 [Example 23, 3-(4-Chlorobenzoyl)-1-(3,4-dimethoxyphenyl)-4-hydroxy-2-methoxycarbonyl-6,7,8-trimethoxynaphthalene] | 1420 nM | 28% | 74%
6 | CCC(CC)C(=O)c1c(C(=O)OC)c(-c2ccc(OC)c(OC)c2)c2cc3c(cc2c1O)OCO3 [Example 33, 1-(3,4-Dimethoxyphenyl)-3-(2-ethyl-1-oxobutyl)-4-hydroxy-2-methoxycarbonyl-6,7-(methylenedioxy)naphthalene] | – | 19% | 50%
7 | COC(=O)c1c(C(=O)c2cccc(C)c2)c(O)c2cc(OC)c(OC)c(OC)c2c1-c1ccc(OC)c(OC)c1 [Example 18, 1-(3,4-Dimethoxyphenyl)-4-hydroxy-2-methoxycarbonyl-3-(3-methylbenzoyl)-6,7,8-trimethoxynaphthalene] | 1000 nM | 13% | 66%
8 | COC(=O)c1c(C(=O)c2ccc(Cl)cc2)c(O)c2cc3c(cc2c1-c1ccc(OC)c(OC)c1)OCO3 [Example 34, 3-(4-Chlorobenzoyl)-1-(3,4-dimethoxyphenyl)-4-hydroxy-2-methoxycarbonyl-6,7-(methylenedioxy)naphthalene] | – | 23% | 53%

The next lines start with results.

Row | IC50 [1] | SMILES | inhibition in vivo at 0.12 % in diet [2, 3] | inhibition in vivo at 0.12 % in diet [2, 4]
9 | 2120 nM | COC(=O)c1c(C(=O)c2ccc(C(F)(F)F)cc2)c(O)c2cc(OC)c(OC)c(OC)c2c1-c1ccc(OC)cc1OC [Example 43, 1-(2,4-Dimethoxyphenyl)-4-hydroxy-2-methoxycarbonyl-3-[4-(trifluoromethyl)benzoyl]-6,7,8-trimethoxynaphthalene] | 15% | 59%
10 | 2790 nM | CCC(CC)CC(=O)c1c(C(=O)OC)c(-c2ccc(OC)c(OC)c2)c2c(OC)c(OC)c(OC)c(OC)c2c1O [Example 69, 1-(3,4-dimethoxyphenyl)-3-(3-ethyl-1-oxopentyl)-4-hydroxy-2-methoxycarbonyl-5,6,7,8-tetramethoxynaphthalene] | 10% | 16%
11 | 540 nM | COC(=O)c1c(C(=O)C(C)C)c(O)c2c(C)c(OC)c(OC)c(OC)c2c1-c1ccc(OC)c(OC)c1 [Example 76, 1-(3,4-dimethoxyphenyl)-3-(2-methyl-1-oxo-propyl)-4-hydroxy-2-methoxycarbonyl-5-methyl-6,7,8-trimethoxynaphthalene] | 15% | 43%
12 | 2920 nM | CCC(=O)c1c(C(=O)OC)c(-c2ccc(OC)c(OC)c2)c2c(OC)c(OC)c(OC)c(OC)c2c1O [Example 73, 1-(3,4-dimethoxyphenyl)-3-(1-oxopropyl)-4-hydroxy-2-methoxycarbonyl-5,6,7,8-tetramethoxynaphthalene] | 13% | 60%
13 | 1520 nM | COC(=O)c1c(C(=O)c2ccc(C(F)(F)F)cc2)c(O)c2cc(OC)c(OC)c(OC)c2c1-c1ccc(OC)c(OC)c1 [Example 28, 1-(3,4-Dimethoxyphenyl)-4-hydroxy-2-methoxycarbonyl-3-[4-(trifluoromethyl)benzoyl]-6,7,8-trimethoxynaphthalene] | 22% | 61%
14 | 1380 nM | CCCc1ccc(C(=O)c2c(C(=O)OC)c(-c3ccc(OC)c(OC)c3)c3c(OC)c(OC)c(OC)cc3c2O)cc1 [Example 29, 1-(3,4-Dimethoxyphenyl)-4-hydroxy-2-methoxycarbonyl-3-[4-(1-propyl)benzoyl]-6,7,8-trimethoxynaphthalene] | 20% | 42%
15 | 2070 nM | COC(=O)c1c(C(=O)c2ccc3ccccc3c2)c(O)c2cc(OC)c(OC)c(OC)c2c1-c1ccc(OC)c(OC)c1 [Example 25, 1-(3,4-Dimethoxyphenyl)-4-hydroxy-2-methoxycarbonyl-3-(2-naphthoyl)-6,7,8-trimethoxynaphthalene] | 16% | 59%
16 | 620 nM | COC(=O)c1c(C(=O)c2ccccc2)c(O)c2c(C)c(OC)c(OC)c(OC)c2c1-c1ccc(OC)c(OC)c1 [Example 78, 3-benzoyl-1-(3,4-dimethoxyphenyl)-4-hydroxy-2-methoxycarbonyl-5-methyl-6,7,8-trimethoxynaphthalene] | 14% | 42%
17 | 2320 nM | COc1ccc(-c2c(C(F)(F)F)c(C(=O)c3ccc(C(F)(F)F)cc3)c(O)c3cc(OC)c(OC)c(OC)c23)cc1OC [Example 63, 1-(3,4-dimethoxyphenyl)-4-hydroxy-2-(trifluoromethyl)-3-[4-(trifluoromethyl)benzoyl]-6,7,8-trimethoxynaphthalene] | 20% | 53%
18 | 4290 nM | COC(=O)c1c(C(=O)c2ccc(C(F)(F)F)cc2)c(O)c2cc(OC(C)C)c(OC(C)C)cc2c1-c1ccc(OC)c(OC)c1 [Example 40, 6,7-Bis(2-propyloxy)-1-(3,4-dimethoxyphenyl)-4-hydroxy-2-methoxycarbonyl-3-[4-(trifluoromethyl)benzoyl]naphthalene] | 23% | 56%
19 | 4950 nM | CCC(CC)CC(=O)c1c(C(=O)OC)c(-c2ccc(OC)c(F)c2)c2c(OC)c(OC)c(OC)cc2c1O [Example 61, 3-(3-Ethyl-1-oxopentyl)-1-(3-fluoro-4-methoxyphenyl)-4-hydroxy-2-methoxycarbonyl-6,7,8-trimethoxynaphthalene] | 11% | 43%
